# Experimental data as given in EP3868394A1, “MONO- AND MULTI-TRIAZOLOMINIGASTRINS FOR TARGETING OF CCK2R-POSITIVE NEOPLASMS” (PAUL SCHERRER INSTITUT, priority 2020, dated 2021).
# Where two headings read alike, the source gives them in different places. Numbered stars: 1 amine (or outer) side, 2 acyl side, 3 side chain; on linkers, the order of the positions; unused ones are H or OH. Square brackets hold non-standard residues; d marks the D form. Peptide text beside a SMILES is read from it. * marks the point of attachment. DOTA = O=C(O)CN1CCN(CC(=O)O)CCN(CC(=O)*)CCN(CC(=O)O)CC1; X1 = O=C(Cn1cc([C@H](Cc2ccc(O)cc2)N[*:1])nn1)[*:2]; Nle = CCCC[C@H](N)C(=O)O
# Legend:
# [1] = Blood plasma stability; type: in vitro ADME, human
# Procedure: Stock solutions were prepared by dissolving the reference substances (Nle^15]-MG11 and PP-F11-N) or the triazolominigastrins (1 mg, 750 nmol) in ammonium acetate buffer (50 µL, 0.5 M, pH 5.5) and addition of water to a final peptide concentration of 250 µM (approx. 0.3 mg/mL). For in vitro experiments, DOTA-functionalized compounds (1 nmol, 4 µL of 250 µM stock solution) were added to a mixture of aq. HCl (22.5 µL, 0.05 M, pH 1.3), ammonium acetate buffer (10 µL, 0.5 M, pH 5.5) and aq. sodium ascorbate (5 µL, 0.5 M). 20-25 MBq of [^177Lu]LuCl3 (ca. 2.5 µL, in 0.04 M HCl, 20-25 MBq/nmol) were added and the mixtures were heated to 95 °C for 20 min in a heating block. After labeling, a 1 µL aliquot of the labeling mixture was added to aq. DTPA (200 µL, 25 µM) for quality control by γ-HPLC.
# The ^177Lu-labeled compounds were diluted with 0.9% NaCl to a concentration of 3.75 µM and incubated (375 pmol, 100 µL, 7.5-12 MBq) in human blood plasma (1.5 mL) at 37 °C. At different time points (0.5, 1, 2, 4, 6 and 24 h) aliquots (75 µL) were taken and the proteins were precipitated in CH3CN (100 µL) and centrifuged (2 min, 14680 rpm, rt). The supernatant (75 µL) was diluted with water (75 µL) and analyzed by γ-HPLC. One phase decay nonlinear regression (A = A0 ^∗ e^-kt) was used to calculate the half-lifes (t1/2) of the peptide conjugates with GraphPad Prism (n=2-3).
# [2] = test system: CCK2R-positive tumors; conditions: cited from earlier work
# [3] = test system: A431-CCK2R cells; assay: Cell internalization experiments with 177Lu-labeled conjugates; type: cell-based, Human
# Procedure: Stock solutions were prepared by dissolving the reference substances (Nle^15]-MG11 and PP-[…]) or the triazolominigastrins (1 mg, 750 nmol) in ammonium acetate buffer (50 μL, 0.5 M, pH 5.5) and addition of water to a final peptide concentration of 250 μM (approx. 0.3 mg/mL). For in vitro experiments, DOTA-functionalized compounds (1 nmol, 4 μL of 250 μM stock solution) were added to a mixture of aq. HCl (22.5 μL, 0.05 M, pH 1.3), ammonium acetate buffer (10 μL, 0.5 M, pH 5.5) and aq. sodium ascorbate (5 μL, 0.5 M). 20-25 MBq of [^177Lu]LuCl3 (ca. 2.5 μL, in 0.04 M HCl, 20-25 MBq/nmol) were added and the mixtures were heated to 95 °C for 20 min in a heating block. After labeling, a 1 μL aliquot of the labeling mixture was added to aq. DTPA (200 μL, 25 μM) for quality control by γ-HPLC. Human epidermoid carcinoma cells A431 stably transfected to express the CCK2R (A431-CCK2R cells)[Aloj L., Journal of Nuclear Medicine, 2004, 45, 485-494] were grown in monolayers in NunclonTM Delta treated cell culture flasks in humidified air at 5% CO2 and 37 °C. The cells were maintained in the culture medium DMEM (high glucose (4.5 g/L)) supplemented with 20 mM L-Gln and 10% FCS. The culture was passaged regularly at 80 to 90% confluency using a 0.25% trypsin 0.38‰ EDTA solution. Assays were conducted in the assay medium DMEM (high glucose) containing 0.1% BSA. On the day prior to the experiment A431-CCK2R cells were placed in six-well plates (0.85·10^6 cells/well) in cell culture medium and incubated overnight for attachment. On the day of the experiment, the medium was removed and the cells were washed twice with 1 mL PBS. The plates were put on ice for preparation. 0.9 mL of assay medium was dispensed to all wells except the ones for nonspecific binding. 0.2 pmol of ^177Lu-labeled conjugates (100 μL, 2 nM in assay medium, ca. 4.2 kBq) were dispensed to all wells. For the determination of nonspecific binding, a 5000-fold excess of […] (1 nmol, 100 μL, 10 μM in assay medium) was added to 0.8 mL of assay medium containing the ^177Lu-labeled conjugates. The plates were incubated at 37 °C in 5% CO2 to allow binding and internalization. The process was stopped after 30, 60, 120, and 240 min by collection of the supernatant. The cells were washed twice with PBS (each 0.6 mL). The combined supernatants represent the free, unbound fraction of radioactivity. Membrane-bound activity was determined by incubating the cells with cold saline glycine buffer (0.6 mL, 0.05 M, pH 2.8) twice for 5 min at rt. The internalized fraction was isolated by two cycles of cell lysis with NaOH (each 0.6 mL, 1 M, 10 min, rt). The radioactivity of the fractions was measured by a COBRA-II gamma counter and is represented as percentage of total applied radioactivity dosage (n=3-5 in triplicates).
# [4] = compared with PP-F11N, Figure 1
# [5] = compared with [Nle^15]MG11, Figure 1
molecule,measurement,setting,value
"CCCC[C@H](NC(=O)[C@H](Cc1c[nH]c2ccccc12)NC(=O)CNC(=O)[C@H](Cc1ccc(O)cc1)NC(=O)[C@H](C)NC(=O)[C@@H](CCC(=O)O)NC(=O)[C@@H](CCC(=O)O)NC(=O)[C@@H](CCC(=O)O)NC(=O)[C@@H](CCC(=O)O)NC(=O)[C@@H](CCC(=O)O)NC(=O)[C@@H](CCC(=O)O)NC(=O)CN1CCN(CC(=O)O)CCN(CC(=O)O)CCN(CC(=O)O)CC1)C(=O)N[C@@H](CC(=O)O)C(=O)N[C@@H](Cc1ccccc1)C(N)=O [PP-F11N, reference compound]",stability in plasma over 24 hours,"[1]; 177Lu-labeled, human blood plasma, 37 °C, over 24 hours, Figure 3",high stability
same,tumor-to-kidney ratio,[2]; according to WO 2015/067473 A1,excellent
DOTA-DGlu-DGlu-DGlu-DGlu-DGlu-DGlu-Ala-Tyr-Gly-Trp-Met-Asp-Phe-NH2 [PP-F11],accumulation in the tumor,[2]; [^177Lu]Lu-PP-F11,high favorable accumulation
same,accumulation in the kidneys,[2]; in vivo,low accumulation
"CCCC[C@H](NC(=O)[C@H](Cc1c[nH]c2ccccc12)NC(=O)Cn1cc([C@H](Cc2ccc(O)cc2)NC(=O)[C@H](C)NC(=O)[C@@H](CCC(=O)O)NC(=O)[C@@H](CCC(=O)O)NC(=O)[C@@H](CCC(=O)O)NC(=O)[C@@H](CCC(=O)O)NC(=O)[C@@H](CCC(=O)O)NC(=O)[C@@H](CCC(=O)O)NC(=O)CN2CCN(CC(=O)O)CCN(CC(=O)O)CCN(CC(=O)O)CC2)nn1)C(=O)N[C@@H](CC(=O)O)C(=O)N[C@@H](Cc1ccccc1)C(N)=O [NMG 6, DOTA-(DGlu)5-DGlu-Ala-Tyr-Ψ[Tz]-Gly-Trp-Nle-Asp-Phe-NH2]",stability in plasma over 24 hours,[1],high stability
DOTA-(DGlu)5-DGlu-Ψ[Tz]-Ala-Tyr-Ψ[Tz]-Gly-Trp-Nle-Asp-Phe-NH2 [NMG 86],cell internalization after 4 h,[3]; [4],higher
same,cell internalization kinetics,[3]; [4],faster
same,stability in plasma over 24 hours,[1],high stability
"CCCC[C@H](NC(=O)[C@H](Cc1c[nH]c2ccccc12)NC(=O)Cn1cc([C@H](Cc2ccc(O)cc2)n2cc([C@H](C)n3cc([C@@H](CCC(=O)O)NC(=O)CN4CCN(CC(=O)O)CCN(CC(=O)O)CCN(CC(=O)O)CC4)nn3)nn2)nn1)C(=O)N[C@@H](CC(=O)O)C(=O)N[C@@H](Cc1ccccc1)C(N)=O [TZMG 876, DOTA-DGlu-Ψ[Tz]-Ala-Ψ[Tz]-Tyr-Ψ[Tz]-Gly-Trp-Nle-Asp-Phe-NH2]",stability in plasma,[1],significantly higher stability
"CCCC[C@H](NC(=O)[C@H](Cc1c[nH]c2ccccc12)NC(=O)Cn1cc([C@H](Cc2ccc(O)cc2)NC(=O)[C@H](C)NC(=O)[C@@H](CCC(=O)O)NC(=O)CN2CCN(CC(=O)O)CCN(CC(=O)O)CCN(CC(=O)O)CC2)nn1)C(=O)N[C@@H](CC(=O)O)C(=O)N[C@@H](Cc1ccccc1)C(N)=O [TZMG 6, DOTA-DGlu-Ala-Tyr-Ψ[Tz]-Gly-Trp-Nle-Asp-Phe-NH2] ({DOTA}-[dE]A[X1]W[Nle]DF-NH2)",stability in plasma,[1],reduced stability
DOTA-DGlu-Ψ[Tz]-Ala-Tyr-Ψ[Tz]-Gly-Trp-Nle-Asp-Phe-NH2 [TZMG 86],cell internalization after 4 h,[3]; [5],higher
same,cell internalization kinetics,[3]; [5],faster
same,stability in plasma,[1],significantly higher stability
